Target: T1, PTP1B (Homo sapiens, UniProt P18031)
T1 sequence (P18031 1-435): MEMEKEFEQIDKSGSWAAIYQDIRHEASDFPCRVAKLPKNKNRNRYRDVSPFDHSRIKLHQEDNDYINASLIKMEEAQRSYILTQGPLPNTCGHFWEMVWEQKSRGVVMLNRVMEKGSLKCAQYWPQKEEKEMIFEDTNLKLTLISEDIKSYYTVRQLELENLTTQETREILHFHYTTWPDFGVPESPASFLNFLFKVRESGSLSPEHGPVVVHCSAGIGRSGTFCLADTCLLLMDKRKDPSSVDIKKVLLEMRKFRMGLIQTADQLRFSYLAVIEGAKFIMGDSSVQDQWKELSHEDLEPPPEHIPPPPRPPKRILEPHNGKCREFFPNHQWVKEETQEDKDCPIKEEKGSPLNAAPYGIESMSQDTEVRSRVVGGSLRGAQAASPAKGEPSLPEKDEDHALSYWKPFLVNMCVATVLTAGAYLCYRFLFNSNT
Assay: p-NPP dephosphorylation end-point assay at […] nm, […] compound
Assay type: biochemical
Settings: read-out: % inhibition at 10 μmol/L

- inhibition at 10 µM: 19.6%
SMILES: COc1c(O)ccc(/C=C/C(=O)O)c1SC[C@@H](O)C(=O)O [compound 1, (S)-2-(2-carboxyl-2-hydroxyethylthio)-ferulic acid]
